Molecules are shown by their SMILES.

A short description of this data set: gradient 5% acetonitrile 3 min, to 50% in 2 min, to 85% in 15 min, held 3 min, 100 µL/min. The conditions noted are these: column: Zorbax Extend-C18 2.1 x 50 mm; eluents: water / acetonitrile, 0.1% formic acid. In outline: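 Mixtures of ~100 pure standards were chromatographed on a Zorbax Extend-C18 column (2.1 × 50 mm, 1.8 μm) at 100 μL/min using water and acetonitrile, each with 0.1% formic acid. Detection used a quadrupole time-of-flight mass spectrometer in positive and negative ionization mode, and data collection spanned 3 months. Retention time was obtained from adduct peaks picked computationally and each checked manually.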
Compound `CC(C)S(=O)(=O)c1cc2c(cc1NC(=O)c1ccc(Cl)cc1)n(C)c(=O)n2C` returned an RP-LC retention time of 936 s.

For `CC(C)(C)NC(=O)Cc1cccn1-c1cccc(Cl)c1`, the RP-LC retention time is 1010 s.

With `Cn1nc(C(=O)N2CCCC(C(=O)NC3CC3)C2)c2c1CCN(C(=O)c1cccc(F)c1)C2` (centres undefined), the RP-LC retention time stood at 646 s.

The compound `CCc1nc(-n2cccc2)sc1C(=O)Nc1cc(C)ccc1F` came in with an RP-LC retention time of 1180 s.

`CC1CCCCN1S(=O)(=O)c1ccc2c(c1)CCC(=O)N2CC(=O)NCc1ccc(F)cc1` (centres undefined) gave an RP-LC retention time of 855 s.

`Cc1cc2n(n1)CCC(=O)N2CCCC(=O)NCCc1cccs1` yielded an RP-LC retention time of 648 s.

Take `CCn1ccc2c(cc(C(=O)Nc3ccccc3Br)n2C)c1=O`: the RP-LC retention time came out at 758 s.

Turning to `Cc1ccc(-n2c(N3CCCC(C(=O)NCCN4CCCCC4)C3)nc3ccsc3c2=O)cc1` (centres undefined), the RP-LC retention time was found to be 617 s.

In turn, `COC(=O)c1ncn2c1C(=O)N(Cc1ccccc1C)C(C)(C(=O)NC1CCCCC1)C2` (centres undefined) had an RP-LC retention time of 792 s.

Take `Cc1cc(NC(=O)c2csc(-c3ccc(N4CCCC4)nc3)n2)ccc1F`: the RP-LC retention time came to 795 s.

As to `CC(=O)n1nc(-c2ccccc2Cl)nc1N`, the RP-LC retention time is 729 s.

`COc1ccccc1CC(=O)NC1CCN(c2cc(-c3ccccc3)[nH]n2)C1` (centres undefined) had an RP-LC retention time of 688 s.

`CO[C@@H]1C=C2CCN(C)[C@@H]2C2c3cc4c(cc3C(=O)O[C@@H]21)OCO4` (some centres undefined) displayed an RP-LC retention time of 604 s.

The compound `COc1ccc(-c2ccnc3nc(-c4ccccc4)nn23)cc1OC` had an RP-LC retention time of 848 s.

`COC(=O)c1c(NCCc2c[nH]c3ccccc23)c2cc(Cl)ccc2[nH]c1=O` yielded an RP-LC retention time of 809 s.

Compound `CC(NC(=O)c1ccc(-c2cccs2)nc1)c1ccccc1` (centres undefined) came in with an RP-LC retention time of 910 s.

Compound `CCOc1ccc(-c2noc(N3CCC(C(=O)NCC4CCCO4)CC3)n2)cc1OC` (centres undefined) returned an RP-LC retention time of 749 s.

`COc1ccc(NC(=O)NCCc2nc3cccnc3n2-c2ccccc2)cc1OC` showed an RP-LC retention time of 657 s.

Compound `COc1cccc(NC(=O)C2CCN(c3nnc4c(Cl)cccn34)CC2)c1` had an RP-LC retention time of 666 s.

Take `O=C1C2N=NN(Cc3nc(-c4ccc(Cl)cc4)no3)C2C(=O)N1c1ccc2c(c1)CCC2` (centres undefined): the RP-LC retention time turned out to be 1160 s.

Consider `Cc1noc(C2CCCCN2Cc2nc(-c3ccccn3)no2)n1` (centres undefined), for which the RP-LC retention time is 639 s.

Compound `CCc1ccc(S(=O)(=O)N2CCCC(Cn3c(C)nc4cccnc43)C2)cc1` (centres undefined) registered an RP-LC retention time of 769 s.

As for `Brc1ccc(-c2noc(Cc3nnc(-c4ccccc4)o3)n2)cc1`, the RP-LC retention time amounted to 1110 s.

The compound `Cc1ccc(NC(=O)Nc2c(-c3ccncc3)nc3ccccn23)cc1C` yielded an RP-LC retention time of 632 s.

Turning to `CC(=O)N1CCN(c2nccc(-n3nc(C)cc3C)n2)CC1`, the RP-LC retention time came to 716 s.

As for `COc1ccc(-c2nc3cc(C)ccn3c2NC(=O)C(C)(C)Oc2ccc(Cl)cc2)cc1`, the RP-LC retention time worked out at 828 s.

On to `Cn1cnc(S(=O)(=O)N2CCCC(c3[nH]ccc3C(N)=O)C2)c1` (centres undefined), for which the RP-LC retention time stood at 586 s.

`Cc1nc(NC(=O)Cn2nc(-n3cccn3)ccc2=O)sc1C(=O)N(C)C` came in with an RP-LC retention time of 585 s.

In the case of `CCCn1ccc2oc(C)c(C(=O)NCc3c(C)cc(C)cc3C)c2c1=O`, the RP-LC retention time stood at 1200 s.

Compound `O=S1(=O)C[C@H](N2CCN(c3ccccc3F)CC2)[C@@H](S(=O)(=O)c2ccc(Cl)cc2)C1` registered an RP-LC retention time of 986 s.

As to `CCCCC(=O)Nc1ccc2nc(N3CCN(c4cccc(C)c4C)CC3)cc(C(=O)O)c2c1`, the RP-LC retention time was found to be 776 s.

In turn, `CC1=NS(=O)(=O)N(C)C=C1C(=O)OCc1noc(-c2ccccc2Cl)n1` registered an RP-LC retention time of 975 s.

The compound `CN(C)S(=O)(=O)Nc1ccccn1` had an RP-LC retention time of 630 s.

With `COCCCNc1c(-c2ccc(C)cc2)nc2sc(C(=O)N(C)C)c(C)n12`, the RP-LC retention time stood at 732 s.

`CCCc1ccc(S(=O)(=O)N2C[C@@H]3C(=O)N(C(CC)c4cccs4)C(=O)[C@@H]3C2)cc1` (some centres undefined): the RP-LC retention time was determined as 1160 s.

Compound `CS(=O)(=O)c1ccc(CC(=O)Nc2nnc(C3CCCO3)o2)cc1` (centres undefined) registered an RP-LC retention time of 578 s.

Take `Cc1ccc(Nc2nc(-c3ccc(I)cc3)cs2)cc1C`: the RP-LC retention time is 1120 s.

Compound `Cn1cccc1C(=O)N1C[C@H]2C[C@H](C1)[C@H]1CCCC(=O)N1C2` yielded an RP-LC retention time of 639 s.

Regarding `COc1ccccc1CNc1ccc(-c2nc(-c3ccc(F)cc3)no2)cn1`, the RP-LC retention time turned out to be 1220 s.

As for `CCCCN1CCN(C(=O)c2ccc(-c3ccnc(N4CCCC4)n3)cc2)CC1`, the RP-LC retention time came out at 573 s.

`CCN1C(=O)NC(c2ccc(C(F)(F)F)cc2)C2=C1CN(CCC(=O)N1CCOCC1)C2=O` (centres undefined) displayed an RP-LC retention time of 638 s.

The compound `CC(C(=O)NCCCN1CCOCC1)C1CCN(C(=O)c2cc3cc(Cl)ccc3[nH]2)CC1` (centres undefined) came in with an RP-LC retention time of 648 s.

The compound `CCc1ccccc1NC(=O)C1CCN(S(=O)(=O)c2ccc3c(c2)sc(=O)n3CC)CC1` had an RP-LC retention time of 932 s.

`COC(=O)c1ccc2c(=O)n(-c3ccc(C)c(F)c3)c(N3CCSCC3)nc2c1` came in with an RP-LC retention time of 1100 s.

For the compound `Cc1c(CN2CC3(CCCCC3)CC2COc2ccncc2)cnn1C` (centres undefined), the RP-LC retention time stood at 565 s.

Consider `Cc1cccc(-n2cc(C(=O)OCc3cccnc3)c3ccccc3c2=O)c1`, for which the RP-LC retention time amounted to 808 s.

Turning to `Cc1ccn2c(Nc3ccc(Cl)cc3)c(-c3ccc(N4CCOCC4)cc3)nc2c1`, the RP-LC retention time turned out to be 967 s.

In the case of `CCOc1cc(=O)n2c(c1C(=O)OCc1cccc(F)c1)CCCCC2`, the RP-LC retention time was 934 s.

For `CCN1C(=O)COc2ccc(-c3noc(-c4cccc(C)c4)n3)cc21`, the RP-LC retention time came out at 1210 s.

The compound `CCCn1cc(C(=O)Nc2ccc(OC)cc2)c(=O)c2ccc(C)nc21` gave an RP-LC retention time of 1100 s.

With `O=C(Cn1nc(N2CCOCC2)c2ccccc2c1=O)Nc1ccc(Br)cc1F`, the RP-LC retention time was 894 s.

`CCOC(=O)c1c(C)oc2ncnc(NCCN3CCN(c4cccc(Cl)c4)CC3)c12` registered an RP-LC retention time of 860 s.

The compound `COc1cccc(-c2noc(Cc3nnc(-c4cccc(Cl)c4)o3)n2)c1OC` had an RP-LC retention time of 1000 s.

As for `O=C(NCCOC(=O)c1ccco1)C(=O)Nc1nc(-c2ccccc2)cs1`, the RP-LC retention time amounted to 887 s.

For the compound `COc1cc(C2c3c(-c4ccc(C)cc4)n[nH]c3C(=O)N2C)ccc1O` (centres undefined), the RP-LC retention time is 692 s.

The compound `COc1ccccc1NC(=O)N1CCCC1c1nc(-c2ccccc2)no1` (centres undefined) gave an RP-LC retention time of 1010 s.

Compound `CC1CCN(c2ncc3c(n2)CCC(C(=O)NC(C)c2ccccn2)C3)CC1` (centres undefined) came in with an RP-LC retention time of 614 s.

As for `CC(C)C(=O)Nc1ccc(-n2cnc(C(=O)N3CCCCCC3)c2)nc1`, the RP-LC retention time came to 710 s.

As to `CCCCn1nc2c(S(=O)(=O)N3CCOCC3)cccn2c1=O`, the RP-LC retention time stood at 702 s.

As for `CC1CCN(C(=O)c2cc3c(s2)CCC(C(=O)Nc2ccc4c(c2)OCCO4)C3)CC1` (centres undefined), the RP-LC retention time turned out to be 947 s.

For the compound `CC1CCN(c2cc(-c3noc(C(=O)NCc4ccco4)n3)ccn2)CC1`, the RP-LC retention time was 808 s.

Compound `CCC(=O)N1CCc2sc(C(=O)N3CCN(c4ccc(Cl)cc4)CC3)cc2C1` registered an RP-LC retention time of 899 s.

In turn, `O=C(NCc1ccc2c(c1)OCO2)C1CCCN(C(=O)C2Sc3ccccc3NC2=O)C1` (centres undefined) yielded an RP-LC retention time of 703 s.

With `CCCN(CC1CCOC1)S(=O)(=O)c1ccc(C)c(F)c1` (centres undefined), the RP-LC retention time was determined as 878 s.

Turning to `CC(C)(C)C(=O)Nc1ccc(-c2nc(-c3ccccc3)co2)cc1`, the RP-LC retention time was 1110 s.

The compound `O=C(CCc1conc1-c1ccc(F)cc1)NCc1ccc2c(c1)OCO2` had an RP-LC retention time of 848 s.

In turn, `CCn1c(C(=O)NCCN2CCCCC2C)c(N2CCCC2=O)c2cc(OC)ccc21` (centres undefined) displayed an RP-LC retention time of 637 s.

`CCN1CCCn2cc(S(=O)(=O)Nc3cccc(OC)c3)cc2C1=O` gave an RP-LC retention time of 698 s.

On to `O=C(NCc1ccco1)c1ccc2c(c1)CCCN2S(=O)(=O)c1ccc(Cl)cc1`, for which the RP-LC retention time was found to be 999 s.

`Cc1cc(C)cc(Oc2nccn3c(=O)n(CC(=O)Nc4c(C)cccc4C)nc23)c1` gave an RP-LC retention time of 906 s.

Compound `O=c1c2nnc3ccnn3c2ccn1CCc1c[nH]c2ccccc12` displayed an RP-LC retention time of 700 s.

Consider `O=C(NCC(O)c1ccc(C(F)(F)F)cc1)C1(c2ccccc2)CCOCC1` (centres undefined), for which the RP-LC retention time was 785 s.

In the case of `CCOc1ccc(-c2nc(C3CC(=O)N(c4ccc(F)c(Cl)c4)C3)no2)cc1OCC` (centres undefined), the RP-LC retention time stood at 1150 s.

In the case of `Fc1ccc(CN2CCC(F)(c3nc(-c4cnccn4)no3)CC2)c(Cl)c1`, the RP-LC retention time worked out at 712 s.

In turn, `CN(C(=O)Cn1ccc2c(=O)n(C)c(=O)n(C)c21)c1cccc(Cl)c1` displayed an RP-LC retention time of 709 s.

`CCCCN1N=C(C(=O)N2CCCCCC2)S(=O)(=O)c2ccc(C)cc21` gave an RP-LC retention time of 1050 s.

`O=C(COc1ccc(C(=O)N2CCN(CCc3ccccc3)CC2)cc1)C1CC1` registered an RP-LC retention time of 583 s.

`COC(=O)c1cc(S(=O)(=O)N2CCCC2C(=O)Nc2cccc(F)c2)cn1C` (centres undefined): the RP-LC retention time came to 883 s.

As for `CC(C)c1nnc(C2CCN(C(=O)c3ccc4nc[nH]c4c3)CC2)o1`, the RP-LC retention time came to 545 s.
